Target: T1, Human Neutrophil Elastase (HNE) (Homo sapiens, UniProt P08246)
T1 construct: Human Neutrophil Elastase (HNE) purified from serum; purchased Calbiochem 324681; host or cells: purified from human serum (so in the source)
T1 sequence (P08246 30-247 limits assumed): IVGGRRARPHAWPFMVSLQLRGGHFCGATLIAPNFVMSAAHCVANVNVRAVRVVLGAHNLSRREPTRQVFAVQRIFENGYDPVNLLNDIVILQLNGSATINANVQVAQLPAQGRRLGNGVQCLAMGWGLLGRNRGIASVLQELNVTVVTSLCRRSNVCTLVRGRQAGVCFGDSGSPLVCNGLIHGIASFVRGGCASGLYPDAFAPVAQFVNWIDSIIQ
Assay: Human Neutrophil Elastase Quenched-FRET Assay
Type: biochemical
Details: HNE purified from serum 1.7 nM, substrate MeOSuc-AAPV-AMC 100 μM, 30 minutes at room temperature; read-out: Inhibition of Human Neutrophil Elastase IC50
Method: Human Neutrophil Elastase Quenched-FRET Assay
HNE was stored in 50 mM sodium acetate (NaOAc), 200 mM sodium chloride (NaCl), pH 5.5 with added 30% glycerol at −20° C. […] The substrate was stored in dimethyl sulphoxide (DMSO) at −20° C. […] The assay buffer constitution was: 100 mM Tris(hydroxymethyl)aminomethane (TRIS) (pH 7.5) and 500 mM NaCl. The enzyme and the compounds were incubated at room temperature for 15 minutes. Then 30 μl substrate in assay buffer was added. The assay was incubated for 30 minutes at room temperature. […] The assay was then stopped by adding 60 μl stop solution (140 mM acetic acid, 200 mM sodium monochloroacetate, 60 mM sodium acetate, pH 4.3).

Row | SMILES | IC50
1 | Cc1c([S+]([O-])c2ccc(C#N)cc2)cc(C(=O)NCC2(O)CC2)c(=O)n1-c1cccc(C(F)(F)F)c1 (stereo not shown) [Example 27, 5-[(4-Cyanophenyl)sulfinyl]-N-[(1-hydroxycyclopropyl)methyl]-6-methyl-2-oxo-1-[3-(trifluoromethyl)phenyl]-1,2-dihydropyridine-3-carboxamide] | 9 nM
2 | Cc1c([S+]([O-])c2ccc(C#N)cc2)cc(C(=O)NCC(C)O)c(=O)n1-c1cccc(C(F)(F)F)c1 (stereo not shown) [Example 49, 5-[(4-Cyanophenyl)sulfinyl]-N-(2-hydroxypropyl)-6-methyl-2-oxo-1-[3-(trifluoromethyl)phenyl]-1,2-dihydropyridine-3-carboxamide] | 4 nM
3 | Cc1c(S(=O)(=O)O)cc(C(=O)NCc2ccc(S(C)(=O)=O)cc2)c(=O)n1-c1cccc(C(F)(F)F)c1 [Example 86, 2-Methyl-5-({[4-(methylsulfonyl)benzyl]amino}carbonyl)-6-oxo-1-[3-(trifluoromethyl)phenyl]-1,6-dihydropyridine-3-sulfonic acid] | 45 nM
4 | CC(=O)Nc1ccc(S(=O)(=O)c2cc(C(=O)NCc3ccc(S(C)(=O)=O)cc3)c(=O)n(-c3cccc(C(F)(F)F)c3)c2C)cc1 [Example 59, 5-{[4-(Acetylamino)phenyl]sulfonyl}-6-methyl-N-[4-(methylsulfonyl)benzyl]-2-oxo-1-[3-(trifluoromethyl)phenyl]-1,2-dihydropyridine-3-carboxamide] | 14 nM

Reference: patent publication US20090105239A1, “2-PYRIDINE DERIVATIVES AS INHIBITORS OF NEUTROPHILE ELASTASE” (priority 2005, published 2009)
